Measured values as given in patent US20240335443A1, “IMIDAZOLOPYRIDAZINE OR PYRAZOLOPYRIMIDINE COMPOUNDS AND COMPOSITIONS” (Anrui Biomedical Technology (Guangzhou) Co., Ltd., priority 2021, published 2024).
Like-named read-outs stand apart in the source and are kept apart here.

Legend:
[1] = tested on: IL-23 induced STAT3 in HEK-Blue™ IL-23 cells; test: IL-23 induced STAT3 QUANTI-Blue reporter assay in HEK-Blue IL-23 cells; format: cell-based; settings: IL-23 0.1 ng/mL, SEAP levels, read-out: IL23 reporter assay (IC50 nM)
Experimental: Biological Example 2. IL-23 Induced STAT3 QUANTI-Blue in HEK-Blue™ IL-23 Cells
HEK-Blue™ IL-23 cells were prepared at 2×10^5 cells/ml for adding 5000 cell/well and incubate plates containing compounds+cells for 1 hour at 37° C. Prepare IL-23 (treatment at final conc. 0.1 ng/mL) during incubation and add 2 ul per well of prepared cytokine in media to appropriate wells. The plate is incubated for overnight at 37° C. The next day, QUANTI-Blue solution is prepared. 18 ul of QUANTI-Blue solution per well is added into a new 384-well clear flat bottom plate, then add 2 ul of induced and treated HEK-Blue cell supernatant from overnight plate. Incubate the plate at 37° C. for 2 hours and determine SEAP levels.

[2] = target: T1, N-terminal His-tagged TYK2 pseudokinase domain (Homo sapiens, UniProt P29597); test: TYK2 JH2 domain SPA binding assay; settings: displacement of H3 probe (20 nM), 30 min room temperature; class symbols
T1 construct: the N-terminal His-tagged TYK2 pseudokinase domain; His (N); purchased Pharmaron
Experimental: TYK2 JH2 Domain Binding Assay
After incubating at room temperature for 30 min, the inhibition was calculated by the displacement of [3H] 3 binding as determined by scintillation counting. Dose-response curves were generated to determine the concentration required to inhibit H3 probe binding by […] (IC50).

[3] = HEK-Blue IL-23 cells, class symbols
[4] = HEK-Blue IL-23, HEK-Blue IL-23 cells, class symbols

T1 sequence (P29597 589-875 limits assumed): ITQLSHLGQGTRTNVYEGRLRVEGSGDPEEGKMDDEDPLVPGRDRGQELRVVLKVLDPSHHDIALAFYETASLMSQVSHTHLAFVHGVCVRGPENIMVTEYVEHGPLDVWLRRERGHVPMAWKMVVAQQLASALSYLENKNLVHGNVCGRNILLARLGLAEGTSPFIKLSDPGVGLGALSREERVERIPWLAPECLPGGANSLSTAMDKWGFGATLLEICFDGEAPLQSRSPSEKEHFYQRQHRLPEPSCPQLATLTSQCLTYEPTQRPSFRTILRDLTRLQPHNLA

SMILES	IC50 [2] [nM]	IC50 [1, 3] [nM]	IC50 [1, 4] [nM]	IC50 ([1]; HEK-Blue IL-23 cells, numeric value (control)) [nM]
CNc1cc(Nc2cccc3c2OCCC3)nn2c(C(=O)N[C@@H]3C[C@@H]4CCO[C@@H]43)cnc12 (racemic) [Compound 24]	10 to 100	–	10 to 100	–
CNc1cc(Nc2cccc3c2OCCC3)nn2c(C(=O)N[C@@H]3C[C@H]4CCO[C@H]43)cnc12 (racemic) [Compound 25]	< 10	–	< 10	–
CNc1cc(Nc2cccc3c2OCCC3)nc2c(C(=O)N[C@@H]3C[C@@H]4CCO[C@@H]43)cnn12 (racemic) [Compound 26]	10 to 100	–	10 to 100	–
CNc1cc(Nc2cccc3c2OCCC3)nc2c(C(=O)N[C@@H]3C[C@H]4CCO[C@H]43)cnn12 (racemic) [Compound 27]	< 10	–	< 10	–
CNc1cc(Nc2cccc(N3CCCC3=O)n2)nn2c(C(=O)NC(C)c3ncco3)cnc12 (racemic) [Compound 28]	10 to 100	–	< 10	–
CNc1cc(Nc2cccc(N3CCCC3=O)n2)nn2c(C(=O)NC3CCn4ccnc43)cnc12 (racemic) [Compound 29]	< 10	–	< 10	–
[2H]C([2H])([2H])Nc1cc(Nc2cccc(N3CCCC3=O)n2)nn2c(C(=O)NC3C[C@@H]4CCOC34)cnc12 (mixture of isomers) [Compound 30]	–	–	10 to 100	–
[2H]C([2H])([2H])Nc1cc(Nc2cccc(N3CCCC3=O)n2)nn2c(C(=O)NC3C[C@H]4CCOC34)cnc12 (mixture of isomers) [Compound 31]	< 10	–	< 10	–
CNc1cc(Nc2cccc(C)n2)nc2c(C(=O)NC3CCn4ccnc43)cnn12 (racemic) [Compound 32]	10 to 100	–	< 10	–
CNc1cc(Nc2cccc(C)n2)nc2c(C(=O)NC3CCn4ncnc43)cnn12 (racemic) [Compound 33]	10 to 100	–	< 10	–
CNc1cc(Nc2cccn(-c3ccccn3)c2=O)nn2c(C(=O)NC(C)c3ncco3)cnc12 (racemic) [Compound 34]	10 to 100	–	10 to 100	–
[2H]C([2H])([2H])Nc1cc(Nc2cccn(-c3ccccn3)c2=O)nc2c(C(=O)NC(C)c3ncco3)cnn12 (racemic) [Compound 35]	10 to 100	–	10 to 100	–
CNc1cc(Nc2cccn(-c3ccccn3)c2=O)nc2c(C(=O)NC3CCc4conc43)cnn12 (racemic) [Compound 37]	10 to 100	–	< 10	–
[2H]c1onc2c1CCC2NC(=O)c1cnn2c(NC)cc(Nc3cccn(-c4ccccn4)c3=O)nc12 (racemic) [Compound 38]	10 to 100	–	< 10	–
CNc1cc(Nc2cccn(-c3ccccn3)c2=O)nc2c(C(=O)N[C@@H]3C[C@H]4CCO[C@H]43)cnn12 (racemic) [Compound 43]	10 to 100	–	10 to 100	–
CNc1cc(Nc2cccn(-c3ccccc3)c2=O)nn2c(C(=O)NC3CCn4ncnc43)cnc12 (racemic) [Compound 47]	10 to 100	–	< 10	–
CNc1cc(Nc2cccn(-c3ccn(C)n3)c2=O)nc2c(C(=O)NC(C)c3ncco3)cnn12 (racemic) [Compound 48]	–	–	10 to 100	–
CNc1cc(Nc2cccn(-c3ccn(C)n3)c2=O)nc2c(C(=O)NC3C[C@@H]4CCOC34)cnn12 (mixture of isomers) [Compound 50]	–	–	100 to 1000	–
CNc1cc(Nc2cccn(-c3ccn(C)n3)c2=O)nc2c(C(=O)N[C@@H]3C[C@H]4CCO[C@H]43)cnn12 (racemic) [Compound 51]	100 to 1000	–	10 to 100	–

SMILES	IC50 [2] [nM]	IC50 [1, 3] [nM]	IC50 [1, 4] [nM]	IC50 ([1]; HEK-Blue IL-23 cells, numeric value (control)) [nM]
CNc1cc(Nc2cccn(-c3cc(C)on3)c2=O)nn2c(C(=O)NC3C[C@H]4CCOC34)cnc12 (mixture of isomers) [Compound 56]	–	–	10 to 100	–
CNc1cc(Nc2cccn([C@H]3C[C@H](F)C3)c2=O)nn2c(C(=O)NC3CCn4ncnc43)cnc12 (mixture of isomers) [Compound 91]	10 to 100	–	10 to 100	–
CNc1cc(Nc2cccn(-c3ccccn3)c2=O)nc2c(C(=O)NC(C)c3ncco3)cnn12 (single isomer, unassigned) [Compound 36a]	–	≥ 1000	–	–
CNc1cc(Nc2cccn(C3CC(C)(OC)C3)c2=O)nn2c(C(=O)N[C@@H]3C[C@H]4CCO[C@H]43)cnc12 (single isomer, unassigned) [Compound 92b]	–	10 to 100	–	–
[2H]C([2H])([2H])NC(=O)c1nnc(NC(=O)C2CC2)cc1Nc1cccc(-c2ncn(C)n2)c1OC [BMS-986165, reference compound]	–	–	–	5.93
CNc1cc(Nc2cccn(-c3ccccn3)c2=O)nn2c(C(=O)N[C@@H]3C[C@H]4CCO[C@H]43)cnc12 [Compound 2, N-((1R,5S,7R)-2-oxabicyclo[3.2.0]heptan-7-yl)-8-(methylamino)-6-((2-oxo-2H-[1,2′-bipyridin]-3-yl)amino)imidazo[1,2-b]pyridazine-3-carboxamide]	–	–	10 to 100	–
CNc1cc(Nc2cccn(-c3ccn(C)n3)c2=O)nn2c(C(=O)N[C@@H]3C[C@H]4CCO[C@H]43)cnc12 [Compound 3a, N-((1R,5S,7R)-2-oxabicyclo[3.2.0]heptan-7-yl)-6-((1-(1-methyl-1H-pyrazol-3-yl)-2-oxo-1,2-dihydropyridin-3-yl)amino)-8-(methylamino)imidazo[1,2-b]pyridazine-3-carboxamide]	–	–	< 10	–
CNc1cc(Nc2cccn(-c3ccn(C)n3)c2=O)nn2c(C(=O)N[C@H]3C[C@@H]4CCO[C@@H]43)cnc12 [Compound 3b, N-((1S,5R,7S)-2-oxabicyclo[3.2.0]heptan-7-yl)-6-((1-(1-methyl-1H-pyrazol-3-yl)-2-oxo-1,2-dihydropyridin-3-yl)amino)-8-(methylamino)imidazo[1,2-b]pyridazine-3-carboxamide]	–	–	100 to 1000	–
[2H]C([2H])([2H])Nc1cc(Nc2cccn(-c3ccccn3)c2=O)nn2c(C(=O)N[C@@H]3C[C@H]4CCO[C@H]43)cnc12 [Compound 4a, N-((1R,5S,7R)-2-oxabicyclo[3.2.0]heptan-7-yl)-8-((methyl-d3)amino)-6-((2-oxo-2H-[1,2′-bipyridin]-3-yl)amino)imidazo[1,2-b]pyridazine-3-carboxamide]	–	–	10 to 100	–
[2H]C([2H])([2H])Nc1cc(Nc2cccn(-c3ccccn3)c2=O)nn2c(C(=O)N[C@H]3C[C@@H]4CCO[C@@H]43)cnc12 [Compound 4b, N-((1S,5R,7S)-2-oxabicyclo[3.2.0]heptan-7-yl)-8-((methyl-d3)amino)-6-((2-oxo-2H-[1,2′-bipyridin]-3-yl)amino)imidazo[1,2-b]pyridazine-3-carboxamide]	–	–	≥ 1000	–
[2H]C([2H])([2H])Nc1cc(Nc2cccn([C@H]3CC[C@H](OC([2H])([2H])[2H])CC3)c2=O)nn2c(C(=O)N[C@@H]3C[C@H]4CCO[C@H]43)cnc12 [Compound 11, N-((1R,5S,7R)-2-oxabicyclo[3.2.0]heptan-7-yl)-6-((1-((1r,4R)-4-(methoxy-d3)cyclohexyl)-2-oxo-1,2-dihydropyridin-3-yl)amino)-8-((methyl-d3)amino)imidazo[1,2-b]pyridazine-3-carboxamide]	< 10	–	–	–
[2H]C([2H])([2H])Nc1cc(Nc2cccn(-c3ccccn3)c2=O)nn2c(C(=O)N[C@@H]3C[C@@H]3F)cnc12 [Compound 39]	–	< 10	–	–
CNc1cc(Nc2cccn(-c3nn(C)cc3F)c2=O)nn2c(C(=O)N[C@@H]3C[C@@H]3F)cnc12 [Compound 60]	–	–	10 to 100	–
[2H]C([2H])([2H])Nc1cc(Nc2cccn(C3CCC4(CC3)COC4)c2=O)nc2c(C(=O)N[C@@H]3C[C@H]4CCO[C@H]43)cnn12 [Compound 67]	–	–	10 to 100	–
[2H]C([2H])([2H])Nc1cc(Nc2cccn([C@H]3CC[C@@H](OC)CC3)c2=O)nn2c(C(=O)N[C@@H]3C[C@@H]3F)cnc12 [Compound 71]	–	–	10 to 100	–
[2H]C([2H])([2H])Nc1cc(Nc2cccn(C3CCC4(CC3)COC4)c2=O)nc2c(C(=O)N[C@@H]3C[C@@H]3F)cnn12 [Compound 74]	–	–	10 to 100	–
[2H]C([2H])([2H])Nc1cc(Nc2cccn(C3C[C@H]4CC[C@@H](C3)O4)c2=O)nc2c(C(=O)N[C@@H]3C[C@H]4CCO[C@H]43)cnn12 (stereo partly drawn) [Compound 77]	–	–	10 to 100	–
[2H]C([2H])([2H])Nc1cc(Nc2cccn(C3C[C@H]4CC[C@@H](C3)O4)c2=O)nn2c(C(=O)N[C@@H]3C[C@H]4CCO[C@H]43)cnc12 (stereo partly drawn) [Compound 78]	–	–	10 to 100	–

The next lines start with results.

IC50 [2] [nM]	SMILES	IC50 [1, 3] [nM]	IC50 [1, 4] [nM]	IC50 ([1]; HEK-Blue IL-23 cells, numeric value (control)) [nM]
10 to 100	CNc1cc(Nc2cccn(-c3ccccn3)c2=O)nn2c(C(=O)NC3CCC4CCOC43)cnc12 (racemic) [Compound 10a, N-(hexahydro-2H-cyclopenta[b]furan-6-yl)-8-(methylamino)-6-((2-oxo-2H-[1,2′-bipyridin]-3-yl)amino)imidazo[1,2-b]pyridazine-3-carboxamide]	10 to 100	–	–
> 1000	CNc1cc(Nc2cccn(-c3ccccn3)c2=O)nn2c(C(=O)NC3CCC4CCOC43)cnc12 (racemic) [Compound 10b, N-(hexahydro-2H-cyclopenta[b]furan-6-yl)-8-(methylamino)-6-((2-oxo-2H-[1,2′-bipyridin]-3-yl)amino)imidazo[1,2-b]pyridazine-3-carboxamide]	≥ 1000	–	–
> 1000	CNc1cc(Nc2cccc3c2OCCC3)nn2c(C(=O)NC(C)c3ncco3)cnc12 (single isomer, unassigned) [Compound 22a]	≥ 1000	–	–
